According to article PMC6533482, “Xanthatin inhibits STAT3 and NF‐κB signalling by covalently binding to JAK and IKK kinases” (Journal of Cellular and Molecular Medicine, 2019):

Key:
[1] = target: T1, JAK2 (Homo sapiens, UniProt O60674); assay: in-gel fluorescence after click labelling of immunoprecipitated protein; assay type: binding
T1 construct: JAK2-FLAG immunoprecipitated from HEK293 cells

[2] = target: T2, IKKβ (Homo sapiens, UniProt O14920); assay: as above; assay type: binding
T2 construct: gene IKBKB; IKKβ-FLAG immunoprecipitated from HEK293 cells
T2 sequence (O14920 1-756): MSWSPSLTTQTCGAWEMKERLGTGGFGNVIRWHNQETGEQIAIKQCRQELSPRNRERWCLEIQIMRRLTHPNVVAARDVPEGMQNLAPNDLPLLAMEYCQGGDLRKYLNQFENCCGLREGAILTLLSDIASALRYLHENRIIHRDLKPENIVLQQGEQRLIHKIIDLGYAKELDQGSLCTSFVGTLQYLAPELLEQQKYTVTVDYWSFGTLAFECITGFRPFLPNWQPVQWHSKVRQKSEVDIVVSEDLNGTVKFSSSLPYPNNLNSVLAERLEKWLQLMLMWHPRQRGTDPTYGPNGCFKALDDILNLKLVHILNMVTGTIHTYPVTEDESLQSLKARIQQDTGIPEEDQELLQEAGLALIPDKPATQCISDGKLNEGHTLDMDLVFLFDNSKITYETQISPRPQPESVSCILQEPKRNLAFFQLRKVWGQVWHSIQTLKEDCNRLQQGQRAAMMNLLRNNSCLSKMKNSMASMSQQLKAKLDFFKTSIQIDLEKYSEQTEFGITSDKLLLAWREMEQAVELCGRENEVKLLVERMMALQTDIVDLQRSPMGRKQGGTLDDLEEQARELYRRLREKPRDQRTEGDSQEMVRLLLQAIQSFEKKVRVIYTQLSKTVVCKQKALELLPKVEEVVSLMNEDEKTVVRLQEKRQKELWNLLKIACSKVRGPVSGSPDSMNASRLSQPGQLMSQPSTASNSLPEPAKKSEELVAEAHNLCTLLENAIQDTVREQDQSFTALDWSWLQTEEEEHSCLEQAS

[3] = target: T3, IKKα (Homo sapiens, UniProt O15111); assay: click-chemistry pull-down from treated cells, competed by xanthatin; assay type: cell-based
T3 construct: gene CHUK; endogenous, MDA-MB-231 cells
T3 sequence (O15111 1-745): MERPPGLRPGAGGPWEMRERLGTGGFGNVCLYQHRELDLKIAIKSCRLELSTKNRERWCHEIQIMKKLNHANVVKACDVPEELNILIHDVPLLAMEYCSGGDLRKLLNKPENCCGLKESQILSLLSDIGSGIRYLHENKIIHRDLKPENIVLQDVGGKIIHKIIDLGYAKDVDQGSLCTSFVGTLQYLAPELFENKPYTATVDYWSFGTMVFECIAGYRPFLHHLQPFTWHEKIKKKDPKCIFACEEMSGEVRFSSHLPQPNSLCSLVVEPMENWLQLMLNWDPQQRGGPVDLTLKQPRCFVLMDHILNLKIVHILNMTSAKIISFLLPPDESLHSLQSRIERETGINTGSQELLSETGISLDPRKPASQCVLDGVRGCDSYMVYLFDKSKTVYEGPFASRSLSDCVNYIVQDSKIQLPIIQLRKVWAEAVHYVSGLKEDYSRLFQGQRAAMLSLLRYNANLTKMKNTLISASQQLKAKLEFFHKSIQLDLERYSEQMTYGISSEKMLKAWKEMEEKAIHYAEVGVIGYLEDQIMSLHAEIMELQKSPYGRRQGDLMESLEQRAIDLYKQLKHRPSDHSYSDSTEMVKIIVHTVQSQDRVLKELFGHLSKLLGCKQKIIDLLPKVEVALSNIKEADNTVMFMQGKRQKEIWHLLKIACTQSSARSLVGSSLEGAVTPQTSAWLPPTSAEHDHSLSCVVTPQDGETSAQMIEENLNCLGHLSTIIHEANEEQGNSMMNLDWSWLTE

[4] = target: T4, JAK1 (Homo sapiens, UniProt P23458); assay: as above; assay type: cell-based
T4 construct: endogenous, MDA-MB-231 cells
T4 sequence (P23458 whole entry): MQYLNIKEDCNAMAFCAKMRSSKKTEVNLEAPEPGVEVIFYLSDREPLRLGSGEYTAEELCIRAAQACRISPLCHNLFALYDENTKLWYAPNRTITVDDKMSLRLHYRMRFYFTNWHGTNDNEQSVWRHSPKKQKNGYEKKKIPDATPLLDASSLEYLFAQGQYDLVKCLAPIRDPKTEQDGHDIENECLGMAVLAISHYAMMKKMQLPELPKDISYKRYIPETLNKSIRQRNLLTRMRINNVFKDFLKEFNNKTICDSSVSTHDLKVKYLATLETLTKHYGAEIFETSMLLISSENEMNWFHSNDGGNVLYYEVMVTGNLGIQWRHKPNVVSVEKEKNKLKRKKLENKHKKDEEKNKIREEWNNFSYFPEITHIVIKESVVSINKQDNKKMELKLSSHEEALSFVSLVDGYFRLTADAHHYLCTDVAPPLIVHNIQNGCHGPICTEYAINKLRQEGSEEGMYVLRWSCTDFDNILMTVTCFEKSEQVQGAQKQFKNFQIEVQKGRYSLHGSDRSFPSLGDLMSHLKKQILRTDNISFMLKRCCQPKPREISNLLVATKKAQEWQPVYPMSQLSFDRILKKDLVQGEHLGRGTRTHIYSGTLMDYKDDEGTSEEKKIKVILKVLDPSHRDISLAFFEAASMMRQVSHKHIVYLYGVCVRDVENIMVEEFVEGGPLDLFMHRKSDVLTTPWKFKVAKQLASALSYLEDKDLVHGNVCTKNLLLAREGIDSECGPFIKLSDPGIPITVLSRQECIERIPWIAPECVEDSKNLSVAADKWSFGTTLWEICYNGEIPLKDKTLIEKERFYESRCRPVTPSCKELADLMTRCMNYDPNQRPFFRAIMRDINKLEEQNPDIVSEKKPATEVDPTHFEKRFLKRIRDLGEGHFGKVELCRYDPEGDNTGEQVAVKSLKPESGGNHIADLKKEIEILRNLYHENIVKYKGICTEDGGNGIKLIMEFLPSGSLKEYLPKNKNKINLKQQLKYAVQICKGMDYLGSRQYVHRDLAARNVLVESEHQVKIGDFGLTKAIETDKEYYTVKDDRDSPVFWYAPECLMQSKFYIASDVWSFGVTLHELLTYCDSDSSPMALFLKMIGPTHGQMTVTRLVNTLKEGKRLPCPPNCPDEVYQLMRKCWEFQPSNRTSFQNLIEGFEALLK

[5] = target: T5, Tyk2 (Homo sapiens, UniProt P29597); assay: as above; assay type: cell-based
T5 construct: endogenous, MDA-MB-231 cells
T5 sequence (P29597 whole entry): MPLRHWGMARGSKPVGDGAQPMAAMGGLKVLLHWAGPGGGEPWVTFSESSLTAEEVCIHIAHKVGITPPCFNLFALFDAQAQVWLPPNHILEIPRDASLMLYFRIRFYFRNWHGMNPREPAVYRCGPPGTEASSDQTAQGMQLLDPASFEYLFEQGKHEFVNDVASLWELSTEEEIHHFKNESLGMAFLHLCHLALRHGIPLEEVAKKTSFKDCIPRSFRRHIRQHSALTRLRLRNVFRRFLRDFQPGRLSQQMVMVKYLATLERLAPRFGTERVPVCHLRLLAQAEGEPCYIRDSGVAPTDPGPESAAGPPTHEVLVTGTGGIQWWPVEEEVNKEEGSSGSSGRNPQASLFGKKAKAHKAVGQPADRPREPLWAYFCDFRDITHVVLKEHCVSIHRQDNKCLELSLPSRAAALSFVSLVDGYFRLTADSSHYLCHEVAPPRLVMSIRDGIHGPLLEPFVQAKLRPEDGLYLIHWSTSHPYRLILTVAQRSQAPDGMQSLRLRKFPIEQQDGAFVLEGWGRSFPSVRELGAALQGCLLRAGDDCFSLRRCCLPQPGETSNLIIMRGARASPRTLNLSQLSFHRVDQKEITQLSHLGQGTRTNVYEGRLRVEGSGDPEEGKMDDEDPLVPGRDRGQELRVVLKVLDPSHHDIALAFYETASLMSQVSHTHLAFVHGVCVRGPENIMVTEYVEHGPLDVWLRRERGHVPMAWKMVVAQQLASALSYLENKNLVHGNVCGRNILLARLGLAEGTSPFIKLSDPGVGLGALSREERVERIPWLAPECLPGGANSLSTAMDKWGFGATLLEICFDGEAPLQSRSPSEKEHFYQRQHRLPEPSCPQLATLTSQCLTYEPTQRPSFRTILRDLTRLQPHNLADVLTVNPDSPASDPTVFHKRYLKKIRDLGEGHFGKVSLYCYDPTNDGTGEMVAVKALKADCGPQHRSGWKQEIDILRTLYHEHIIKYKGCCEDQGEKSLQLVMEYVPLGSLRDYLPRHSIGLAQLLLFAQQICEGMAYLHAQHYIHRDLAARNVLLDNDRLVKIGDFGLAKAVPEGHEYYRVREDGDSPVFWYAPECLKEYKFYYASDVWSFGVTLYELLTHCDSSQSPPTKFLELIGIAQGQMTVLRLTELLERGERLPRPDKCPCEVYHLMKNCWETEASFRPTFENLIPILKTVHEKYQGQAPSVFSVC

[6] = target: T5, Tyk2; assay: competition of Alk-Xa pull-down in cells; assay type: cell-based
[7] = target: T3, IKKα; assay: competition of Alk-Xa pull-down in cells; assay type: cell-based
[8] = target: T4, JAK1; assay: competition of Alk-Xa pull-down in cells; assay type: cell-based
[9] = target: T1, JAK2; assay: in vitro kinase assay with immunoprecipitated JAK2; adduct confirmed by LC-MS/MS; assay type: biochemical
[10] = target: T2, IKKβ; assay: in vitro kinase assay with immunoprecipitated IKKβ; adducts confirmed by LC-MS/MS; assay type: biochemical

T1 sequence (O60674 whole entry): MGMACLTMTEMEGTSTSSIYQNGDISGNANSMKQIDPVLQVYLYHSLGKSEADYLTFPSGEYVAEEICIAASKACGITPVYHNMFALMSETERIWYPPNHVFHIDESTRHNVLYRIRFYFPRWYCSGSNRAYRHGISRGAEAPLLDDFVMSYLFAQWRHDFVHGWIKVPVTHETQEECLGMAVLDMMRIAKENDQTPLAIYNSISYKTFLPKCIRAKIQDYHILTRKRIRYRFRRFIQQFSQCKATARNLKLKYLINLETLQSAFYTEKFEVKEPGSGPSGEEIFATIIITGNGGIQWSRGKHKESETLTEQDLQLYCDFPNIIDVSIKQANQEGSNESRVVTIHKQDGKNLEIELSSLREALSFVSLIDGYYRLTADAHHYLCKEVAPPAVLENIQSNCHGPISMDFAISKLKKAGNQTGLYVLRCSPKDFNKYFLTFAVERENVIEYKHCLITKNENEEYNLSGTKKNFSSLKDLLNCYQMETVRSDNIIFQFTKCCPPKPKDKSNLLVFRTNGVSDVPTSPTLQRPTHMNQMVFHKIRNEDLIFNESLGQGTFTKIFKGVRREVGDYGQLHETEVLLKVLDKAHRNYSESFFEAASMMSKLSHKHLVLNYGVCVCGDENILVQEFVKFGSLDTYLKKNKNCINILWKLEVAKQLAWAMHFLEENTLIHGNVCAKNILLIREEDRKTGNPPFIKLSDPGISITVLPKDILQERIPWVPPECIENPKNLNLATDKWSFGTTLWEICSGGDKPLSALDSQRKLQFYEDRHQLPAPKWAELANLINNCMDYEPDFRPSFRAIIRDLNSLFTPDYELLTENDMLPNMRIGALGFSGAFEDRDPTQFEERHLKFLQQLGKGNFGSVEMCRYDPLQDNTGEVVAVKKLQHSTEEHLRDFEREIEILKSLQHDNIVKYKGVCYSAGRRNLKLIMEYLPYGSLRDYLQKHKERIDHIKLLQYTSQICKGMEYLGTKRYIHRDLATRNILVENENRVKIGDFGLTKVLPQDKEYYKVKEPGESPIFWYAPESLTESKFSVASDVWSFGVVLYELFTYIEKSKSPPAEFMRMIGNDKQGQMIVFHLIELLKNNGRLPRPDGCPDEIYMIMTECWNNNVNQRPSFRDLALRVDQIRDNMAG

| SMILES | in-gel fluorescence after click labelling of immunoprecipitated protein [1] | in-gel fluorescence after click labelling of immunoprecipitated protein [2] | click-chemistry pull-down from treated cells, competed by xanthatin [3] | click-chemistry pull-down from treated cells, competed by xanthatin [4] | click-chemistry pull-down from treated cells, competed by xanthatin [5] | competition of Alk-Xa pull-down in cells [6] | competition of Alk-Xa pull-down in cells [7] | competition of Alk-Xa pull-down in cells [8] | IC50 [9] [µM] | IC50 [10] [µM] |
| --- | --- | --- | --- | --- | --- | --- | --- | --- | --- | --- |
| C#CCNC(=O)/C=C/C1=CC[C@@H]2C(=C)C(=O)O[C@H]2C[C@@H]1C [Alk-Xa, Alk‐Xa] | fluorescence intensity of JAK2 and IKKβ was proportional to the dosage of Alk‐Xa, indicating that Alk‐Xa covalently bound | fluorescence intensity of JAK2 and IKKβ was proportional to the dosage of Alk‐Xa, indicating that Alk‐Xa covalently bound | JAK1, JAK2, Tyk2, IKKα and IKKβ were pulled down with the Alk‐Xa | JAK1, JAK2, Tyk2, IKKα and IKKβ were pulled down with the Alk‐Xa | JAK1, JAK2, Tyk2, IKKα and IKKβ were pulled down with the Alk‐Xa |  |  |  |  |  |
| C=C1C(=O)O[C@H]2C[C@H](C)C(/C=C/C(C)=O)=CC[C@H]12 [Xa, xanthatin] |  |  |  |  |  | the interactions could be competed away by excessive unlabelled xanthatin | the interactions could be competed away by excessive unlabelled xanthatin | the interactions could be competed away by excessive unlabelled xanthatin | 4.08 | 11.3 |
